This passage reports TGI and GI50 results from PubChem BioAssay (NCI).

Some test systems named below: SNB-78 CNS; XF 498 CNS; SR leukemia; DMS 114 small cell lung; BT-549 breast; HS 578T breast; NCI/ADR-RES ovarian; MDA-MB-435; MCF7 breast; T-47D breast; 786-0 renal; KM20L2 colon.
Common to all, as to experiment: growth of human tumour cells (NCI), 48 h

SMILES strings stand for the structures. Where “and” joins values, the source holds several entries; their conditions need not be identical. Equal entries are not always repeated.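 Cultured in 96-well plates, cells were exposed to test compound for 48 hours across five concentrations. GI50 is the concentration that inhibits growth by half. Definition used: TGI = concentration required for complete inhibition of growth.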

As for `O=S(O)c1cc(Cl)c(O)c(Cl)c1`, the TGI in the experiment with SNB-78 CNS, with XF 498 CNS, in the experiment with SR leukemia and in the experiment with DMS 114 small cell lung was > 100 µM in each case.

As to `Cn1c(=O)c2[nH]c(SC/C(=N/O)c3ccc(Br)cc3)nc2n(C)c1=O`, the GI50 is 2.55 µM in the experiment with BT-549 breast, 3.05 µM in the experiment on HS 578T breast and 2.83 µM with SR leukemia. In addition, the figures for the TGI with BT-549 breast, with HS 578T breast and in the experiment with SR leukemia were 7.36 µM, 7.9 µM and > 100 µM, respectively.

With `COc1ccc2c3/c(=C\c4ccc(N(C)C)cc4)c4ccccc4n3[n+](C)c2c1`, the GI50 is 0.129 µM in the experiment on BT-549 breast, 0.162 µM in the experiment with HS 578T breast, 4.31 µM in the experiment on NCI/ADR-RES ovarian and 0.484 µM with MDA-MB-435. For the same molecule, the results for the TGI in the experiment with BT-549 breast, with NCI/ADR-RES ovarian and in the experiment with MDA-MB-435 were 2.7 µM, > 55.8 µM and 1.83 µM, respectively.

In the case of `COc1ccccc1C(=O)OCC1CCCN2CCCCC12` (centres undefined), the TGI is 54.6 µM in the experiment with BT-549 breast; > 100 µM with HS 578T breast; > 100 µM in the experiment on NCI/ADR-RES ovarian; > 100 µM in the experiment with MDA-MB-435; > 100 µM in the experiment with MCF7 breast; 81.7 µM with T-47D breast. The TGI in the experiment on 786-0 renal was > 100 µM.

With `Cc1cc(O)c2c(c1)C(C1c3cccc(O)c3C(=O)c3c(O)cc(C)cc31)c1cccc(O)c1C2=O` (centres undefined), the TGI in the experiment on BT-549 breast was 0.94 µM; in the experiment on HS 578T breast, 33.3 µM; in the experiment with NCI/ADR-RES ovarian it was 9.2 µM; in the experiment with MDA-MB-435, 10.7 µM; with MCF7 breast, 1.18 µM; in the experiment on T-47D breast it was 2.98 µM. For the same molecule, the values for the TGI with 786-0 renal and in the experiment with SR leukemia were 6.82 µM and 3.32 µM, respectively.

Regarding `O=C1C(=C([O-])c2ccccc2)C(=O)c2ccccc21.O=C1C(=C([O-])c2ccccc2)C(=O)c2ccccc21.[Ni+2]`, in the experiment on KM20L2 colon, the GI50 was > 100 µM and the TGI was > 100 µM.

Consider `O=c1[nH]c(=O)n(C2CC(O)C(CO)O2)cc1Br` (centres undefined), for which the TGI in the experiment on BT-549 breast, in the experiment on HS 578T breast, with NCI/ADR-RES ovarian, in the experiment with MDA-MB-435, in the experiment on MCF7 breast and with T-47D breast was > 100 µM in each case. In the experiment on 786-0 renal, the TGI was > 100 µM.

Consider `CC1OC(O[C@@H]2C=C3CC[C@@H]4[C@H](CC[C@]5(C)[C@@H](c6ccc(=O)oc6)CC[C@]45O)[C@@]3(C)CC2)C(O)C(OC2OC(CO)C(O)C(O)C2O)C1O` (some centres undefined), for which the TGI with KM20L2 colon is 0.0545 µM; in the experiment with SNB-78 CNS, 0.033 µM; with MDA-MB-435 it was 0.02 µM; with MCF7 breast, 0.0804 µM and 0.0468 µM; in the experiment with XF 498 CNS, 0.0276 µM; in the experiment with 786-0 renal it was 0.0117 µM. The results for the GI50 with MDA-MB-435, with MCF7 breast and in the experiment on T-47D breast were 0.000454 µM, 0.000196 µM and 0.00216 µM, respectively.

Consider `COc1cc(O)c(Cc2ccccc2O)c(O)c1C(=O)CCc1ccccc1`, for which the TGI was determined as 24.6 µM in the experiment on KM20L2 colon; 31.4 µM in the experiment on SNB-78 CNS; 18.9 µM in the experiment on NCI/ADR-RES ovarian; 18 µM with MCF7 breast; 7.76 µM in the experiment on XF 498 CNS; 14.5 µM in the experiment with DMS 114 small cell lung.

On to `NC(=O)/N=C/c1c(O)c2ccccc2oc1=O`, for which the TGI in the experiment with KM20L2 colon, in the experiment with SNB-78 CNS and in the experiment on DMS 114 small cell lung was > 100 µM throughout.
